39 compounds from US20090163586A1, “Bis-(Sulfonylamino) Derivatives in Therapy 205” (AstraZeneca AB, priority 2007, published 2009) can be followed below.

The test addresses T1, human mPGES-1 (Homo sapiens, UniProt O14684).
T1 sequence (O14684 1-152): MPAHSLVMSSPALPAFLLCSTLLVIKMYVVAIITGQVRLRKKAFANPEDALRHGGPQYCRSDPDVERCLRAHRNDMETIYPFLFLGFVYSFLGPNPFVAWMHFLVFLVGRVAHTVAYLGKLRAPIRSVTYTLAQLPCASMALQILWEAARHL
The test can be described thus: Microsomal prostaglandin E synthase biochemical assay. The note with it: microsome preparation containing human mPGES-1; PGH2 10.8 μM, GSH 2.5 mM, pH 6.8; PGE2 by HTRF; average of at least n=2. In short, it runs like this: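 Human mPGES-1 microsomes at 2 μg/mL were pre-incubated 15 min with compound (60 μM to 0.002 μM) in 50 mM potassium phosphate pH 6.8 with 2.5 mM GSH. The reaction was started with 10.8 μM PGH2 and stopped after 1 minute with acidic ferric chloride/citrate. PGE2 was quantified by HTRF; IC50 is the mean of at least 2 runs.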
`NS(=O)(=O)c1ccccc1NS(=O)(=O)CCc1ccc(C2Cc3ccccc3O2)cc1` (stereo not drawn) [Example 2, 2-[2-[4-(2,3-Dihydrobenzofuran-2-yl)phenyl]ethylsulfonylamino]benzenesulfonamide] showed an IC50 of 270 nM.
Take `NS(=O)(=O)c1ccccc1NS(=O)(=O)/C=C/c1ccc(C2=CCCC2)cc1` [Example 207, (E)-2-(2-(4-Cyclopentenylphenyl)vinylsulfonamido)benzenesulfonamide]: the IC50 stood at 97 nM.
Under `CNS(=O)(=O)c1ccc2c(c1)-c1cc(S(=O)(=O)Nc3ccccc3S(N)(=O)=O)ccc1S2(=O)=O` [Example 177, N-Methyl-N′-(2-sulfamoylphenyl)dibenzo[b,d]thiophene-2,8-disulfonamide 5,5-dioxide] stands 2200 nM; under `NS(=O)(=O)c1cc2c(cc1NS(=O)(=O)CCc1ccc(-c3ccco3)cc1)CCC2` [Example 235, 6-(2-(4-(Furan-2-yl)phenyl)ethylsulfonamido)-2,3-dihydro-1H-indene-5-sulfonamid], 6200 nM; under `COc1ncc(-c2cccc(S(=O)(=O)Nc3ccccc3S(N)(=O)=O)c2)c(OC)n1` [Example 118, 3-(2,4-Dimethoxypyrimidin-5-yl)-N-(2-sulfamoylphenyl)benzenesulfonamide], 4700 nM.
In the case of `CSc1ccc(/C=C/S(=O)(=O)Nc2ccc(F)cc2S(N)(=O)=O)cc1` [Example 38, 5-Fluoro-2-[[(E)-2-(4-methylsulfanylphenyl)ethenyl]sulfonylamino]-benzenesulfonamide], the IC50 came to 220 nM. This IC50 is about 21-fold lower than that of the compound before.
On to `NS(=O)(=O)c1ccc(Cl)cc1NS(=O)(=O)CCc1ccc(OC(F)F)cc1` [Example 226, 4-Chloro-2-(2-(4-(difluoromethoxy)phenyl)ethylsulfonamido)benzenesulfonamide], for which the IC50 is 1300 nM. This IC50 lies about 5.9-fold higher than the previous one.
With `NS(=O)(=O)c1ccccc1NS(=O)(=O)/C=C/c1ccc(OC(F)F)cc1` [Example 20, 2-[[(E)-2-[4-(Difluoromethoxy)phenyl]ethenyl]sulfonylamino]benzenesulfonamide], half-maximal inhibition (IC50) required 700 nM.
`NS(=O)(=O)c1cc(Cl)ccc1NS(=O)(=O)CCc1ccc(Cl)c(Cl)c1` [Example 202, 5-Chloro-2-(2-(3,4-dichlorophenyl)ethylsulfonamido)benzenesulfonamide] registered an IC50 of 2900 nM.
Compound `CSc1ccc(/C=C/S(=O)(=O)Nc2cccc(F)c2S(N)(=O)=O)cc1` [Example 39, 2-Fluoro-6-[[(E)-2-(4-methylsulfanylphenyl)ethenyl]sulfonylamino]-benzenesulfonamide] yielded an IC50 of 1400 nM.
With `COc1ccccc1/C=C/S(=O)(=O)Nc1ccc(F)cc1S(N)(=O)=O` [Example 55, 5-Fluoro-2-[[(E)-2-(2-methoxyphenyl)ethenyl]sulfonylamino]benzenesulfonamide], the IC50 was found to be 360 nM. This IC50 lies about 3.9-fold lower than the previous one.
Take `N#Cc1cccc(-c2cccc(S(=O)(=O)Nc3ccccc3S(N)(=O)=O)c2)c1` [Example 116, 2-[[3-(3-Cyanophenyl)phenyl]sulfonylamino]benzenesulfonamide]: the IC50 was found to be 1700 nM.
In the case of `NS(=O)(=O)c1cc(CO)ccc1NS(=O)(=O)CCc1ccc(C#CC2CCCC2)cc1` [Example 212, 2-[2-(4-Cyclopentylethynyl-phenyl)-ethanesulfonylamino]-5-hydroxymethyl-benzenesulfonamide], the IC50 is 41 nM.
Take `C/C(=C\c1ccc(Cl)cc1)S(=O)(=O)Nc1c(F)cccc1S(N)(=O)=O` [Example 14, 2-[[(E)-1-(4-Chlorophenyl)prop-1-en-2-yl]sulfonylamino]-3-fluoro-benzenesulfonamide]: the IC50 stood at 3100 nM. Against the preceding compound, the IC50 is about 76-fold higher.
In turn, `NS(=O)(=O)c1ccc(F)cc1NS(=O)(=O)/C=C/c1cccc(C(F)(F)F)c1` [Example 61, 4-Fluoro-2-[[(E)-2-[3-(trifluoromethyl)phenyl]ethenyl]sulfonylamino]-benzenesulfonamide] showed an IC50 of 2400 nM.
The same measure for `NS(=O)(=O)c1c(F)cccc1NS(=O)(=O)/C=C/c1ccc(Cl)c(Cl)c1` [Example 25, 2-[[(E)-2-(3,4-Dichlorophenyl)ethenyl]sulfonylamino]-6-fluoro-benzenesulfonamide]: 77 nM.
`COc1cc(Cl)ccc1CCS(=O)(=O)Nc1ccccc1S(N)(=O)=O` [Example 186, 2-(2-(4-Chloro-2-methoxyphenyl)ethylsulfonamido)benzenesulfonamide] showed an IC50 of 250 nM.
In turn, `NS(=O)(=O)c1ccccc1NS(=O)(=O)c1cccc(-c2cccc(CO)c2)c1` [Example 171, 2-[[3-[3-(Hydroxymethyl)phenyl]phenyl]sulfonylamino]benzenesulfonamide] registered a 50% inhibitory concentration (IC50) of 1700 nM.
Take `NS(=O)(=O)c1ccccc1NS(=O)(=O)/C=C/c1c(F)cccc1F` [Example 103, 2-[[(E)-2-(2,6-Difluorophenyl)ethenyl]sulfonylamino]benzenesulfonamide]: the half-inhibitory concentration (IC50) amounted to 9200 nM. This IC50 lies about 5.4-fold higher than the previous one.
With `NS(=O)(=O)c1ccccc1NS(=O)(=O)c1cccc(-c2cncc(Cl)c2)c1` [Example 168, 2-[[3-(5-Chloropyridin-3-yl)phenyl]sulfonylamino]benzenesulfonamide], half-maximal inhibition (IC50) was put at 630 nM.
Under `CC(CS(=O)(=O)Nc1ccccc1S(N)(=O)=O)c1ccccc1` (stereo not drawn) [Example 79, 2-(2-Phenylpropylsulfonylamino)benzenesulfonamide] stands 9900 nM; under `NS(=O)(=O)c1ccccc1NS(=O)(=O)c1cccc(-c2ccc3c(c2)CCO3)c1` [Example 137, 2-[[3-(2,3-Dihydrobenzofuran-5-yl)phenyl]sulfonylamino]benzenesulfonamide], 2100 nM; under `NS(=O)(=O)c1cc(F)cc(F)c1NS(=O)(=O)CCc1ccc(Cl)c(Cl)c1` [Example 229, 2-(2-(3,4-Dichlorophenyl)ethylsulfonamido)-3,5-difluorobenzenesulfonamide], 5500 nM.
The same measure for `Cc1ccc(NS(=O)(=O)/C=C/c2ccc(Br)cc2)c(S(N)(=O)=O)c1` [Example 98, 2-[[(E)-2-(4-Bromophenyl)ethenyl]sulfonylamino]-5-methyl-benzenesulfonamide]: 680 nM.
With `NS(=O)(=O)c1ccccc1NS(=O)(=O)CCc1ccc(C#CC2CCCCC2)nc1` [Example 188, 2-(2-(6-(cyclohexylethynyl)pyridin-3-yl)ethylsulfonamido)benzenesulfonamide], the IC50 was 270 nM. This IC50 is about 2.5-fold lower than that of the compound before.
`NS(=O)(=O)c1ccccc1NS(=O)(=O)c1cccc(-c2ccc(CO)cc2)c1` [Example 172, 2-[[3-[4-(Hydroxymethyl)phenyl]phenyl]sulfonylamino]benzenesulfonamide] displayed an IC50 of 7300 nM.
`Cc1ccc(NS(=O)(=O)/C=C/c2cccc(C(F)(F)F)c2)c(S(N)(=O)=O)c1` [Example 68, 5-Methyl-2-[[(E)-2-[3-(trifluoromethyl)phenyl]ethenyl]sulfonylamino]-benzenesulfonamide]: the concentration for half-maximal inhibition (IC50) came out at 9100 nM.
`NS(=O)(=O)c1ccccc1NS(=O)(=O)c1cccc(-c2ccccc2)c1` [Example 129, 3-Phenyl-N-(2-sulfamoylphenyl)benzenesulfonamide] showed an IC50 of 2500 nM.
In turn, `NS(=O)(=O)c1ccccc1NS(=O)(=O)/C=C/c1ccccc1Cl` [Example 48, 2-[2-(2-Chloro-phenyl)-ethenesulfonylamino]-benzenesulfonamide] had an IC50 of 590 nM. Compared with the last compound, the IC50 is about 4.2-fold lower.
Compound `Cc1ccc(NS(=O)(=O)c2cccc(-c3cccc(OC(F)(F)F)c3)c2)c(S(N)(=O)=O)c1` [Example 152, 5-Methyl-2-[[3-[3-(trifluoromethoxy)phenyl]phenyl]sulfonylamino]-benzenesulfonamide] yielded an IC50 of 3900 nM.
`NS(=O)(=O)c1cnccc1NS(=O)(=O)CCc1ccc(-c2cc3ccccc3o2)cc1` [Example 204, 4-(2-(4-(Benzofuran-2-yl)phenyl)ethylsulfonamido)pyridine-3-sulfonamide] returned a concentration for half-maximal inhibition (IC50) of 620 nM.
The compound `NC(=O)c1ccc(NS(=O)(=O)c2cccc(-c3ccc(Cl)c(Cl)c3)c2)c(S(N)(=O)=O)c1` [Example 151, 4-[[3-(3,4-Dichlorophenyl)phenyl]sulfonylamino]-3-sulfamoyl-benzamide] yielded an IC50 of 3700 nM.
With `NS(=O)(=O)c1ccccc1NS(=O)(=O)/C=C/c1ccc(C(F)(F)F)cc1` [Example 105, 2-[[(E)-2-[4-(Trifluoromethyl)phenyl]ethenyl]sulfonylamino]benzenesulfonamide], the IC50 was 670 nM.
The compound `Cc1ccc(/C=C/S(=O)(=O)Nc2ccccc2S(N)(=O)=O)cc1` [Example 82, 2-[[(E)-2-(4-Methylphenyl)ethenyl]sulfonylamino]benzenesulfonamide] displayed an IC50 of 7300 nM.
Consider `NS(=O)(=O)c1ccccc1NS(=O)(=O)CCc1ccc(C#Cc2ccc(C(F)(F)F)cc2)nc1` [Example 240, 2-(2-(6-((4-(Trifluoromethyl)phenyl)ethynyl)pyridin-3-yl)ethylsulfonamido)benzenesulfonamide], for which the IC50 turned out to be 31 nM.
`COc1ccc(Br)cc1/C=C/S(=O)(=O)Nc1ccccc1S(N)(=O)=O` [Example 29, 2-[[(E)-2-(5-Bromo-2-methoxy-phenyl)ethenyl]sulfonylamino]benzenesulfonamide] gave an IC50 of 280 nM.
In turn, `NS(=O)(=O)c1ccccc1NS(=O)(=O)/C=C/c1ccccc1` [Example 75, 2-[[(E)-2-Phenylethenyl]sulfonylamino]benzenesulfonamide] registered an IC50 of 2600 nM.
Consider `N#Cc1ccc(/C=C/S(=O)(=O)Nc2cc(F)ccc2S(N)(=O)=O)cc1` [Example 30, 2-[[(E)-2-(4-Cyanophenyl)ethenyl]sulfonylamino]-4-fluoro-benzenesulfonamide], for which the IC50 came to 5900 nM.
In turn, `CCOc1ccccc1/C=C/S(=O)(=O)Nc1ccccc1S(N)(=O)=O` [Example 222, 2-[2-(2-ethoxy-phenyl)-ethenesulfonylamino]-benzenesulfonamide] showed an IC50 of 380 nM.
